compound: Cc1ccc(C(=O)Nc2ccc(CN3CCN(C)CC3)c(C(F)(F)F)c2)cc1C#Cc1cnc2cccnn12 [Ponatinib] + O=C(CCCCCCC(=O)Nc1ccccc1)NO [Vorinostat] (partner 1 µM); test: relative viability (nuclei count vs DMSO), 5 days (fraction); higher = more cells survive; conditions: first compound 0.2 µM
In short: (§1)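 The day after seeding in 1536-well plates, lung cancer cell lines were treated by pin tool with a single drug, or with a fixed anchor-drug dose together with five library-drug doses (not always all listed) in √10 steps. After 5 days, a combined fix-and-stain solution (final 0.05% Triton X-100, 1% formaldehyde, 1 ug/ml Hoechst) was added. Nuclei counted on 4× images gave relative viability as treated counts over vehicle counts, reported as the median of duplicate plates.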

| Cell Line | relative viability |
| --- | --- |
| COR-L23 | 0.462 |
| COR-L 105 | 0.837 |
| IA-LM | 0.783 |
| LOU-NH91 | 0.873 |
| ChaGo-K-1 | 0.648 |
| NCI-H358 | 0.551 |
| NCI-H3122 | 1.05 |
| HOP-62 | 0.597 |
| HCC-44 | 1.07 |
| NCI-H522 | 0.928 |
| LU99A | 0.611 |
| BEN | 0.546 |
| HARA | 0.46 |
| SW 900 | 0.525 |
| HCC-78 | 0.406 |
| NCI-H441 | 0.757 |
| LCLC-97TM1 | 0.535 |
| NCI-H2009 | 0.585 |
| A-427 | 0.881 |

compound: Cc1ccc(C(=O)Nc2ccc(CN3CCN(C)CC3)c(C(F)(F)F)c2)cc1C#Cc1cnc2cccnn12 [Ponatinib] + CCNC(=O)c1noc(-c2cc(C(C)C)c(O)cc2O)c1-c1ccc(CN2CCOCC2)cc1 [Luminespib] (partner 0.01 µM); test: as above; conditions: first compound 0.002 µM
In short: as §1

| Cell Line | relative viability |
| --- | --- |
| NCI-H2342 | 0.759 |
| NCI-H1623 | 0.372 |
| NCI-H838 | 0.324 |
| NCI-H1650 | 0.255 |
| NCI-H1993 | 0.778 |
| NCI-H2347 | 0.6 |
| PC-14 | 0.127 |
| LCLC-103H | 0.928 |
| NCI-H596 | 1.06 |
| NCI-H2126 | 0.874 |
| EMC-BAC-2 | 1.06 |
| NCI-H2085 | 0.459 |
| NCI-H1666 | 1.02 |
| NCI-H647 | 0.136 |
| NCI-H2087 | 0.167 |
| NCI-H1395 | 0.644 |
| H3255 | 0.862 |
| COR-L23 | 0.658 |

| Cell Line | relative viability |
| --- | --- |
| COR-L 105 | 0.651 |
| LOU-NH91 | 0.317 |
| ChaGo-K-1 | 0.562 |
| NCI-H358 | 0.406 |
| NCI-H3122 | 0.113 |
| HOP-62 | 0.87 |
| HCC-44 | 0.96 |
| NCI-H522 | 1.17 |
| LU99A | 0.288 |
| BEN | 0.259 |
| HARA | 0.683 |
| SW 900 | 0.179 |
| NCI-H441 | 0.359 |
| LCLC-97TM1 | 0.677 |
| NCI-H2009 | 0.975 |
| A-427 | 0.908 |
| NCI-H1792 | 0.354 |
| NCI-H1563 | 0.48 |

same assay, conditions: first compound 0.006325 µM

| Cell Line | relative viability |
| --- | --- |
| NCI-H2342 | 0.701 |
| NCI-H1623 | 0.484 |
| NCI-H838 | 0.324 |
| NCI-H1650 | 0.236 |
| NCI-H1993 | 0.921 |
| NCI-H2347 | 0.544 |
| PC-14 | 0.147 |
| LCLC-103H | 0.974 |
| NCI-H596 | 1.07 |
| NCI-H2126 | 0.955 |
| EMC-BAC-2 | 1.15 |
| NCI-H2085 | 0.459 |
| NCI-H1666 | 0.998 |
| NCI-H647 | 0.225 |
| LK-2 | 0.185 |
| NCI-H2087 | 0.135 |
| NCI-H1395 | 0.601 |
| H3255 | 0.887 |
| COR-L23 | 0.618 |

| Cell Line | relative viability |
| --- | --- |
| COR-L 105 | 0.931 |
| LOU-NH91 | 0.318 |
| ChaGo-K-1 | 0.651 |
| NCI-H358 | 0.418 |
| NCI-H3122 | 0.0854 |
| HOP-62 | 0.946 |
| HCC-44 | 0.976 |
| NCI-H522 | 1.3 |
| LU99A | 0.25 |
| BEN | 0.296 |
| HARA | 0.948 |
| SW 900 | 0.19 |
| NCI-H441 | 0.354 |
| LCLC-97TM1 | 0.704 |
| NCI-H2009 | 0.967 |
| A-427 | 0.799 |
| NCI-H1792 | 0.422 |
| NCI-H1563 | 0.535 |

same assay, conditions: first compound 0.06325 µM

| Cell Line | relative viability |
| --- | --- |
| NCI-H2342 | 0.834 |
| NCI-H1623 | 0.491 |
| NCI-H838 | 0.298 |
| NCI-H1650 | 0.2 |
| NCI-H1993 | 0.991 |
| NCI-H2347 | 0.487 |
| PC-14 | 0.195 |
| LCLC-103H | 0.908 |
| NCI-H596 | 1.01 |
| NCI-H2126 | 1.04 |
| EMC-BAC-2 | 1.28 |
| NCI-H2085 | 0.446 |
| NCI-H1666 | 1.09 |
| NCI-H647 | 0.158 |
| LK-2 | 0.181 |
| NCI-H2087 | 0.178 |
| NCI-H1395 | 0.829 |
| H3255 | 0.805 |
| COR-L23 | 0.669 |

| Cell Line | relative viability |
| --- | --- |
| COR-L 105 | 0.845 |
| LOU-NH91 | 0.393 |
| ChaGo-K-1 | 0.571 |
| NCI-H358 | 0.597 |
| NCI-H3122 | 0.128 |
| HOP-62 | 0.835 |
| HCC-44 | 1.22 |
| NCI-H522 | 1.18 |
| LU99A | 0.274 |
| BEN | 0.24 |
| HARA | 0.749 |
| SW 900 | 0.243 |
| NCI-H441 | 0.305 |
| LCLC-97TM1 | 0.647 |
| NCI-H2009 | 1.02 |
| A-427 | 1.08 |
| NCI-H1792 | 0.465 |
| NCI-H1563 | 0.595 |

same assay, conditions: first compound 0.2 µM

| Cell Line | relative viability |
| --- | --- |
| NCI-H2342 | 0.601 |
| NCI-H1623 | 0.426 |
| NCI-H838 | 0.3 |
| NCI-H1650 | 0.186 |
| NCI-H1993 | 0.932 |
| NCI-H2347 | 0.435 |
| PC-14 | 0.138 |
| LCLC-103H | 0.733 |
| NCI-H596 | 0.686 |
| NCI-H2126 | 0.873 |
| EMC-BAC-2 | 1.07 |
| NCI-H2085 | 0.432 |
| NCI-H1666 | 0.986 |
| NCI-H647 | 0.234 |
| LK-2 | 0.158 |
| NCI-H2087 | 0.176 |
| NCI-H1395 | 0.637 |
| H3255 | 0.929 |
| COR-L23 | 0.513 |
| COR-L 105 | 0.895 |
| LOU-NH91 | 0.404 |
| ChaGo-K-1 | 0.553 |
| NCI-H358 | 0.262 |
| NCI-H3122 | 0.109 |
| HOP-62 | 0.781 |
| HCC-44 | 1.01 |
| NCI-H522 | 1.09 |
| LU99A | 0.242 |
| BEN | 0.576 |
